From patent US12685777B2, “Compositions, systems, and methods for modulating a target gene” (The Board of Trustees of the Leland Stanford Junior …, priority 2022, dated 2026) come the findings set out here.

For test [1], the target named is T1, bromodomain 1 of BRD4 and BTB domain of BCL6 (Homo sapiens, UniProt O60885+P41182, C67R/C84N/C8Q).
T1 construct: contains amino acids 5-129 with three mutations, C8Q, C67R, C84N
The experiment in a line: TR-FRET assay of ternary complex formation. The note with it: 1 hr at room temperature, 520 nm/490 nm ratio. In kind it is binding. The method, then:
Reaction was incubated for 1 hr at room temperature, and subsequently the fluorescence at 520 nm and 490 nm was measured. The 520 nm/490 nm ratio is plotted respective to DMSO control. The two lower curves are performed by addition of Neg1 and Neg2 instead of JWZ-7-7. […] The structure of JWZ-7-7 is provided in FIG. 2 and the structures of Neg1 and Neg2 are provided below:
Each reaction contained 100 nM BRD4^BD1, 100 nM BCL6BTB-Avi-Biot, 20 nM Streptavidin-FITC (Thermo #SA1001), and 1:400 anti-6×His terbium antibody (PerkinElmer #61H12TLF) in 10 μL of buffer containing 20 mM HEPES, 150 mM NaCl, 0.1% BSA, 0.1% NP-40, and 1 mM TCEP in a 384-well plate. Protein was incubated with drug digitally dispensed (Tecan D300e) for 1 hour in the dark at room temperature before excitation at 337 nm and measurement of emission at 520 nm (FITC) and 490 nm (terbium) with a PHERAstar FS plate reader (BMG Labtech). The ratio of signal at 520 nm to 490 nm was calculated and normalized to DMSO-treated conditions, and plotted.

Test [2] relates to MYC, FOXO3, p21, BCL6, BRD4 protein levels in KARPAS422 and SUDHL5. The experiment in a line: Western blots of target proteins in DLBCL cells. In kind it is cell-based, human. As to the method:
Cells were plated at 1 M/mL and treated with drug at indicated timepoints and doses. 2 M Cells were harvested on ice in RIPA buffer (50 mM Tris-HCl pH 8, 150 mM NaCl, 1% NP-40, 0.1% DOC, 1% SDS, protease inhibitor cocktail (homemade), 1 mM DTT) and 1:200 benzonase (Sigma #E1014) was added and incubated for 20 minutes. After 10 minute centrifugation at 14,000 g and 4° C., the supernatant was collected and protein concentration was measured by Bradford.
Because a high percentage of the TCIP1-treated cells contain fragmented DNA by TUNEL assay at 24 hours (FIG. 31, Panel E), many of the “reduced genes” could reflect DNA fragmentation as part of the apoptotic process and digestion to mononucleosomes. Among the group of genes whose expression was most reduced were MYC and its targets (FIGS. 33B, 36C). The top 100 most TCIP1-reduced genes were examined using ChIP-seq data of human transcription factors in blood cancer cell lines, and found the promoters of TCIP1-inhibited genes highly enriched for MYC binding in multiple datasets (FIG. 33, Panel C). This is significant since many DLBCLs are considered to be MYC-dependent.
Signaling via NF-kB is known to be repressed by BCL6.
For orientation: A western blot detects proteins with antibodies after separation by electrophoresis.

In the case of `CNC(=O)COc1cc2cc(Nc3nc(N4CCC(C(=O)NCCCCCCCNC(=O)C[C@@H]5N=C(c6ccc(Cl)cc6)c6c(sc(C)c6C)-n6c(C)nnc65)CC4)ncc3Cl)cc(OC)c2n(C)c1=O` [JWZ-7-7, (S)-1-(5-chloro-4-((8-methoxy-1-methyl-3-(2-(methylamino)-2-oxoethoxy)-2-oxo-1,2-dihydroquinolin-6-yl)amino)pyrimidin-2-yl)-N-(7-(2-(4-(4-chlorophenyl)-2,3,9-trimethyl-6H-thieno[3,2-f][1,2,4]triazolo[4,3-a][1,4]diazepin-6-yl)acetamido)heptyl)piperidine-4-carboxamide], the “Ternary complex formation (TR-FRET)” value in test [1] is reported as “showed ternary complex formation”. Moreover, the “Concentration that regulates genes critical for DLBCL” value in test [2] (Karpas 422, 24 hours, Western blot) is reported as less than 1 NM.

For the compound `CNC(=O)COc1cc2cc(Nc3nc(N4CCC(C(=O)NCCCCCCCNC(=O)C[C@@H]5N=C(c6ccc(Cl)cc6)c6c(sc(C)c6C)-n6c(C)nnc65)CC4)ncc3Cl)cc(OC)c2n(C)c1=O` [TCIP1], in test [1], the “Ternary complex formation (TR-FRET)” value is on record as “detected”. Further, the “Time to FOXO3 activation” value in test [2] (10 nM) was “within two hours”. Besides, the “Effect on BRD4 protein levels” value in test [2] (20 hours, KARPAS422) was “did not change substantially”. Further, in test [2] (DLBCL cell lines), the “Concentration from which the long isoform of BCL6 protein is induced” value was in the range of 0.5 to 1 nM. Also, the “Concentration that activates FOXO3” value in test [2] (Western blot) came to 0.5 nM. Further, in test [2] (Western blot, DLBCL cells), the “Concentration from which MYC protein levels are reduced” value is listed as “less than 1 nM”. Besides, the “Time to reduction of MYC protein levels” value in test [2] (after drug addition) was not above 2 h.
